Results on 14 compounds are retold here after patent publication US7459284B2, “Chemiluminescent acridinium compounds and analogues thereof as substrates of hydrolytic enzymes” (Siemens Healthcare Diagnostics Inc., priority 1999, dated 2008).

Counter-ions that a name gives are not always drawn. Like-named read-outs stand apart in the source and are kept apart here.

Data set [1] concerns the target T1, alkaline phosphatase (Bos taurus, UniProt P19111). As to the kind of experiment: Enzymatic conversion of substrate by alkaline phosphatase (HPLC analysis). The data set is classed as biochemical. The settings on record: alkaline aqueous medium; about 1 hour. The procedure:
A 1 mM DMF solution of the acridinium 3-enol-phosphate (13) was mixed with 150 μL of 100 mM Tris pH 9 also containing 1 mM MgCl2. Alkaline phosphatase (5 μl of a 2 mg/ml solution) was added and the reaction was incubated at room temperature for ˜1 hour. […] The product was isolated by semi-preparative HPLC using a 7.8×300 mm, C18 column. MALDI-TOF MS of the product indicated this was indeed the keto product (14): m/z 521.36 obs. (520.56 calc.).
A 20 μL DMF solution of the acridan (15) (1.7 mM) was combined with 180 μl of 0.15 M 2-amino-2-methyl-1-propanol pH 10.3 also containing 1 mM magnesium acetate. A clear blue solution was obtained (0.17 mM substrate), which was then treated with alkaline phosphatase (10^−10 moles). The blue color was discharged instantly. […] The reaction mixture was then evaluated by the FSSS to determine the light emission spectrum of the product, which is shown in FIG. 2N. The product was isolated by semi-preparative HPLC. […] (521.56 calc.).

A short description of data set [2]: Quantum yield when flashed with alkaline solution first, then hydrogen peroxide. The data set is classed as physicochemical. The following applies: 0.25 N sodium hydroxide with 0.5% AQUARD first, followed by 0.5% hydrogen peroxide. The procedure: More specifically, when a solution of 1 is treated with 0.25 N sodium hydroxide solution containing 0.5% AQUARD, followed by 0.5% hydrogen peroxide, the quantum yield of 1 is lowered by more than 30 fold. […] Thus, to the advantage of better distinction between the signals of certain chemiluminescent products and their substrates, preferably, said alkaline solution contains sodium hydroxide at concentration of 0.01 to 1.0 N, and AQUARD at concentration of 0.01 to 1%, and said hydrogen peroxide solution contains hydrogen peroxide at concentration of 0.001 to 5%. More preferably, said alkaline solution contains 0.25 N sodium hydroxide and 0.5% AQUARD, and said hydrogen peroxide solution contains 0.5% hydrogen peroxide.

Data set [3] can be described thus: Light emission spectra by Fast Spectral Scanning System (FSSS). The data set is classed as physicochemical. On the procedure:
The light emission spectra of compounds 1˜12 and 15˜18 were determined by a Fast Spectral Scanning System (FSSS) of Photo Research (a division of Kollmorgen Corp.) of Burbank, Calif., U.S.A. The experiment was carried out in a dark room. Each compound was dissolved in acetonitrile or N,N-dimethylformamide. The resulting concentrate was diluted with the same solvent to form the working solution, which upon flashing gave a light emission with an adequate intensity. A typical experiment utilized 10˜100 μg or more of the sample in 500 μl of the solvent contained in a 13×100 mm borosilicate test tube. The tube was placed on a test tube rack raised to a proper height. A piece of aluminum foil was placed on the back of the tube to enhance the detectability of the emitted light. The FSSS optical head was placed in front of the tube at an approximate distance of about 130 mm with its lens focused on the liquid in the tube. The sample solution was first treated with 0.35 ml of the Flashing Reagent #1 (Bayer Diagnostics) containing 0.1 N HNO3 and 0.5% H2O2. The room was then darkened, and 0.35 ml of the Flashing Reagent #2 (Bayer Diagnostics) containing 0.25 N NaOH and 0.5% ARQUAD was added to the reaction mixture immediately. (See U.S. Pat. No. 4,927,769, which is commonly assigned and incorporated herein by reference.) The light which was generated instantaneously following the addition of the Reagent #2 was recorded by FSSS for 5 seconds starting from about one second before the Reagent #2 was added.

For data set [4], the target named is T1, alkaline phosphatase. The experiment in a line: Alkaline phosphatase assay using 2-Phos-DMAE (1) as chemiluminescent substrate. It counts as biochemical. The settings on record: 0.1 mM substrate, pH 9 Tris, 45° C., 1 hour; R2228P PMT, LL700 filter, 4° C. The procedure: With one or more of the above approaches combined, several assay systems based on the principle of detecting the long emission signal generated by the action of AP on 2-Phos-DMAE (1) are constructed, and disclosed in the section of Examples. One example (Example 17) consists of the incubation of AP standards in a substrate solution containing 0.1 mM 2-Phos-DMAE (1), 1 mM magnesium chloride in 100 mM, pH 9 Tris buffer at 45° C. for 1 hour. The light outputs were measured on a luminometer equipped with a red-sensitive PMT (R2228P) and a long pass filter (LL700), which is placed in a 4° C. cold room. The sample was treated first with 0.25 N sodium hydroxide solution containing 0.5% AQUARD, immediately followed by 0.5% hydrogen peroxide.
The substrate solution of 2-Phos-DMAE (1) was prepared at 0.1 mM in 100 mM, pH 9.0 Tris buffer containing 1 mM MgCl2. […] The light outputs were measured for 2 seconds on Bayer Diagnostics Magic Lite Analyzer 1 (MLA-1) equipped with R268 PMT and two LL650 long wavelength pass filters (Corion, Lot No. CFS-002645). […]
According to Example 16, an assay of alkaline phosphatase was carried out by adding 5 μl of the AP standard to 95 μl of the substrate solution. […] The light outputs were measured for 2 seconds on MLA-1 equipped with R2228P PMT and a LL700 long wavelength pass filters, and the unit was pre-cooled in a cold room (4° C).

The conditions of data set [5]: strong alkaline solution; disclosed in WO 00/09487; cited from earlier work.
Setting [6] is: FSSS, hydrogen peroxide in strong alkaline solution.
The mark [7] stands for this setting: spectral region with signal intensity above 5% of peak height, FSSS scanning limit 380-780 nm, flashed with 0.1 N HNO3/0.5% H2O2 then 0.25 N NaOH/0.5% ARQUAD.

T1 sequence (P19111 20-506): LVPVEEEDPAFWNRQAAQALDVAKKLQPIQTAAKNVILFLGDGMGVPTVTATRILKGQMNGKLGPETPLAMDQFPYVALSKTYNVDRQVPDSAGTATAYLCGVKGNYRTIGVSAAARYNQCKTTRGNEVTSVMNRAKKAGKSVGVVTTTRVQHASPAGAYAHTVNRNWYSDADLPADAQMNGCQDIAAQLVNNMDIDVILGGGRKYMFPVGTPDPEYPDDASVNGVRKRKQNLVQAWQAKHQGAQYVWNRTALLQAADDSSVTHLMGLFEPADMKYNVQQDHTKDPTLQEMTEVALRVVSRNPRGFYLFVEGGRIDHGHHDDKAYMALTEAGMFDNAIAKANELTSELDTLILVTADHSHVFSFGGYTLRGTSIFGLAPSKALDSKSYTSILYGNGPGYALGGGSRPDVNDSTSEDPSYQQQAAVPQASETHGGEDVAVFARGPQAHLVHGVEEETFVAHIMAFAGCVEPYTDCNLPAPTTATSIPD

In the case of `Cc1cc(C(=O)O)cc(C)c1OC(=O)c1c2ccccc2[n+](C)c2ccc(OP(=O)(O)O)cc12.[Na+].[Na+]` [Compound 1, (2′,6′-dimethyl-4′-carboxyl)phenyl 10-methyl-2-Phosphoryloxy-acridinium-9-carboxylate bromide], the “conversion by alkaline phosphatase” value in data set [1] is “excellent substrate”. Also, the “lowering of quantum yield” value in data set [2] was “more than 30 fold”. In data set [3] (setting [6]), the “Emission Maximum” value is recorded as 478 nm. Further, the “Emission Range” value in data set [3] (setting [7]) is 430-600 nm. Moreover, in data set [4], the “level of alkaline phosphatase detected” value is “below 1×10^−18 mole”.

Regarding `Cc1cc(C(=O)O)cc(C)c1OC(=O)c1c2ccccc2[n+](C)c2ccc(O)cc12` [Compound 2, (2′,6′-dimethyl-4′-carboxyl)phenyl 2-hydroxy-10-methyl-acridinium-9-carboxylate trifluoroacetate], the “lowering of quantum yield” value in data set [2] is “basically not affected”. Further, in data set [3] (setting [6]), the “Emission Maximum” value was 602 nm. Also, in data set [3] (compound 2 relative to compound 1), the “bathochromic shift of emission maximum” value is given as 128 nm. The “Emission Range” value in data set [3] (setting [7]) is 500-780^ nm. For the same compound, the “emission λmax” value in data set [5] is recorded as 604 nm.

Consider `Cc1cc(C(=O)OCc2ccccc2)cc(C)c1OC(=O)c1c2ccccc2[n+](C)c2ccc(OP(=O)(O)O)cc12` [Compound 3, (2′,6′-dimethyl-4′-benzyloxy-carbonyl)phenyl 2-phosphoryloxy-10-methyl-acridinium-9-carboxylate trifluoroacetate], for which, in data set [3] (setting [6]), the “Emission Maximum” value was determined as 474 nm. For the same compound, the “Emission Range” value in data set [3] (setting [7]) is reported as 430-600 nm.

Take `Cc1cc(C(=O)OCc2ccccc2)cc(C)c1OC(=O)c1c2ccccc2[n+](C)c2ccc(O)cc12` [Compound 4, (2′,6′-dimethyl-4′-benzyl-oxycarbonyl)phenyl 2-hydroxy-10-methyl-acridinium-9-carboxylate trifluoroacetate]: the “Emission Maximum” value in data set [3] (setting [6]) was 604 nm. The “Emission Range” value in data set [3] (setting [7]) was 500-780^ nm.

On to `C[n+]1c2ccccc2c(C(=O)Oc2ccccc2)c2cc(OP(=O)(O)O)ccc21` [Compound 5, phenyl 10-methyl-2-Phosphoryloxy-acridinium-9-carboxylate trifluoroacetate], for which the “Emission Maximum” value in data set [3] (setting [6]) is reported as 478 nm. Besides, the “Emission Range” value in data set [3] (setting [7]) was 430-600 nm.

Turning to `C[n+]1c2ccccc2c(C(=O)Oc2ccccc2)c2cc(O)ccc21` [Compound 6, phenyl 2-hydroxy-10-methyl-acridinium-9-carboxylate trifluoromethanesulfonate], in data set [3], the “Emission Maximum” value turned out to be 600 nm and the “Emission Range” value was 500-780^ nm.

Take `Cc1cc(C(=O)O)cc(C)c1OC(=O)c1c2ccccc2[n+](CCCCS(=O)(=O)[O-])c2ccc(OP(=O)(O)O)cc12` [Compound 7, (2′, 6′-dimethyl-4′-carboxyl)phenyl 2-phosphoryloxy-10-sulfobutyl-acridinium-9-carboxylate]: in data set [3] (setting [6]), the “Emission Maximum” value was 474 nm. Also, the “Emission Range” value in data set [3] (setting [7]) is on record as 430-600 nm.

For the compound `Cc1cc(C(=O)O)cc(C)c1OC(=O)c1c2ccccc2[n+](CCCCS(=O)(=O)[O-])c2ccc(O)cc12` [Compound 8, (2′, 6′-dimethyl-4′-carboxyl)phenyl 2-hydroxy-10-sulfobutyl-acridinium-9-carboxylate], the “Emission Maximum” value in data set [3] (setting [6]) is 594 nm. Also, the “Emission Range” value in data set [3] (setting [7]) was 500-780^ nm.

Regarding `COc1ccc2c(c1)c(C(=O)Oc1c(C)cc(C(=O)O)cc1C)c1cc(OP(=O)(O)O)ccc1[n+]2C.[Na+].[Na+]` [Compound 9, (2′,6′-dimethyl-4′-carboxyl)phenyl 2-phosphoryloxy-7-methoxy-10-methyl acridinium-9-carboxylate], the “Emission Maximum” value in data set [3] (setting [6]) is on record as 476 nm. The “Emission Range” value in data set [3] (setting [7]) was 440-600 nm.

In the case of `COc1ccc2c(c1)c(C(=O)Oc1c(C)cc(C(=O)O)cc1C)c1cc(O)ccc1[n+]2C` [Compound 10, (2′,6′-dimethyl-4′-carboxyl)phenyl 2-hydroxy-7-methoxy-10-methyl acridinium-9-carboxylate], the “longer emission maxima than unmethoxylated compound 2” value in data set [3] (2-OH-7-MeO-DMAE vs 2-OH-DMAE) is 60-70 nm. In addition, the “Emission Maximum” value in data set [3] (setting [6]) came to 674 nm. Also, the “Emission Range” value in data set [3] (setting [7]) is given as 520-780^ nm.

On to `CN1c2ccccc2C2(Oc3ccccc3OC2=O)c2cc(OP(=O)(O)O)ccc21` (centres unmarked) [Compound 11, 2-Phos-Spiroacridan], for which the “Emission Maximum” value in data set [3] (setting [6]) was 474 nm. Besides, the “Emission Range” value in data set [3] (setting [7]) is given as 430-600 nm.

As to `Cc1cc(C(=O)O)cc(C)c1OC(=O)c1c2ccccc2[n+](C)c2cc(/C(=C/c3ccc(O)cc3)OP(=O)(O)O)ccc12` [Compound 13, (2′,6′-dimethyl-4′-carboxyl)phenyl 3-(β-phosphoryloxy-4′-hydroxystyryl)-10-methyl acridinium-9-carboxylate trifluoromethanesulfonate], in data set [1], the “conversion by alkaline phosphatase” value is “complete conversion”.

For the compound `C[n+]1c2ccccc2c(C(=O)Oc2ccc(O)cc2)c2ccccc21` [Compound 18, 4′-hydroxyphenyl 10-methyl acridinium-9-carboxylate trifluoromethanesulfonate], in data set [3], the “Emission Maximum” value amounted to 452 nm and the “Emission Range” value is listed as 410-540 nm.

Consider “(2′,6′-dimethyl-4′-carboxyl)phenyl 3-(β-phosphoryloxy-4′-hydroxystyryl)-10-methyl acridan [Compound 15]”, for which the “conversion by alkaline phosphatase” value in data set [1] is recorded as “clean conversion”. Further, the “Emission Maximum” value in data set [3] (setting [6]) was determined as 678 nm. Moreover, the “Emission Range” value in data set [3] (setting [7]) is on record as 520-780^ nm.
